Laboratory results as given in ChEMBL document CHEMBL1201862, “PubChem BioAssay data set” (2004).
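Five compound concentrations were applied to cells in 96-well plates for 48 hours; endpoints were derived by simple linear interpolation of the resulting dose-response curve. GI50 is the concentration that inhibits growth by half.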 Calls of active or inactive are those of the source. Cut-off read from the data, not from the text of the source: active = GI50 up to about 1.1 µM and inactive = higher.

What was measured:
Assay in all cases: inhibition of tumour cell growth, NCI panel, 48 h
DMS-273 = tested on: DMS-273
SNB-78 = tested on: SNB-78
DLD-1 = tested on: DLD-1
XF498 = tested on: XF498
DMS-114 = tested on: DMS-114
LXFL 529 = tested on: LXFL 529
HOP-18 = tested on: HOP-18
KM-20L2 = tested on: KM-20L2
RXF 631 = tested on: RXF 631

SMILES	GI50 (DMS-273)	GI50 (SNB-78)	GI50 (DLD-1)	GI50 (XF498)	GI50 (DMS-114)	GI50 (LXFL 529)	GI50 (HOP-18)	GI50 (KM-20L2)	GI50 (RXF 631)
c1ccc(OCc2nnc3n2N=C(c2ccccc2)CS3)cc1	> 100 µM (inactive)	> 100 µM (inactive)	> 100 µM (inactive)	> 100 µM (inactive)	> 100 µM (inactive)	> 100 µM (inactive)			
Nc1ncnc2c(C3OC(CO)C(O)C3O)scc12 (centres undefined)	0.00377 µM (active)	4.31 µM (inactive)	0.00212 µM (active)	0.0282 µM (active)	0.0292 µM (active)	0.129 µM (active)	< 0.01 µM (active)	0.00516 µM (active)	
Cc1c(C2Cc3ccccc3N2C(=O)/C=C\C(=O)O)c2ccccc2n1C (centres undefined)	34.8 µM (inactive)	35.5 µM (inactive)	35.9 µM (inactive)	17.3 µM (inactive)	18.7 µM (inactive)	17.3 µM (inactive)		25.1 µM (inactive)	> 100 µM (inactive)
CCOC(=O)c1nc2ccc([N+](=O)[O-])cc2c2c1CCO2	> 100 µM (inactive)	> 100 µM (inactive)	> 100 µM (inactive)	> 100 µM (inactive)	> 100 µM (inactive)	> 100 µM (inactive)	71 µM (inactive)	> 100 µM (inactive)	> 100 µM (inactive)
O=C(Nc1cc(Cl)ccc1Cl)C(=O)C(c1cnc2ccccc2n1)[N+](=O)[O-] (centres undefined)		> 100 µM (inactive)	> 100 µM (inactive)	> 100 µM (inactive)	> 100 µM (inactive)	> 100 µM (inactive)	> 100 µM (inactive)	> 100 µM (inactive)	> 100 µM (inactive)
O=[N+]([O-])c1ccc2nc(/C(=N\Nc3ccccc3)C(O)c3ccc4c(c3)OCO4)c(O)nc2c1 (centres undefined)	37.7 µM (inactive)	> 100 µM (inactive)	> 100 µM (inactive)		37.4 µM (inactive)	50.7 µM (inactive)		67 µM (inactive)	> 100 µM (inactive)
COc1ccc(-c2nc(N)n(C)c2SSc2c(-c3ccc(OC)cc3)nc(N)n2C)cc1	3.88 µM (inactive)		4.3 µM (inactive)	2.13 µM (inactive)	2.26 µM (inactive)	1.67 µM (inactive)	5.57 µM (inactive)	12.9 µM (inactive)	
CC1=CC(=O)N2[C@H](OC[C@@H]2C(C)C)O1			> 100 µM (inactive)	> 100 µM (inactive)	> 100 µM (inactive)	> 100 µM (inactive)	> 100 µM (inactive)	> 100 µM (inactive)	> 100 µM (inactive)
Cc1ccc(N2C(=O)/C(=C/c3ccc(N(CCC#N)CCC#N)cc3)N=C2COc2ccc(Cl)cc2Cl)cc1		> 100 µM (inactive)	> 100 µM (inactive)	> 100 µM (inactive)	> 100 µM (inactive)	> 100 µM (inactive)	33.8 µM (inactive)	> 100 µM (inactive)	> 100 µM (inactive)
O=C1CCC(=O)C(C(=O)CCC(=O)Nc2ccc(Cl)cc2)C1 (centres undefined)	> 100 µM (inactive)	> 100 µM (inactive)	> 100 µM (inactive)	> 100 µM (inactive)	> 100 µM (inactive)	> 100 µM (inactive)	> 100 µM (inactive)	> 100 µM (inactive)	> 100 µM (inactive)
C/N=c1\ss/c(=N\C(=S)N(C)C)n1C1CCCCC1	> 31.6 µM (inactive)	> 31.6 µM (inactive)	> 100 µM (inactive)	> 31.6 µM (inactive)	> 31.6 µM (inactive)	> 31.6 µM (inactive)	> 31.6 µM (inactive)	> 31.6 µM (inactive)	> 100 µM (inactive)
Oc1cc(Cl)ncn1	> 100 µM (inactive)	> 100 µM (inactive)	> 100 µM (inactive)		> 100 µM (inactive)	> 100 µM (inactive)	> 100 µM (inactive)	> 100 µM (inactive)	> 100 µM (inactive)
Cc1c(C(=O)CC(=O)C(=O)NC2C3CC4CC(C3)CC2C4)[n+]([O-])c2ccccc2[n+]1[O-] (centres undefined)	> 100 µM (inactive)	> 100 µM (inactive)		93.5 µM (inactive)	> 100 µM (inactive)	> 100 µM (inactive)	24.4 µM (inactive)	> 100 µM (inactive)	> 100 µM (inactive)
O=C(O)CCC(NC(=O)c1ccc(Nc2nc3cc(C(F)(F)F)ccc3nc2-c2ccccc2)cc1)C(=O)O (centres undefined)	24.6 µM (inactive)	> 95.9 µM (inactive)	> 76 µM (inactive)	> 78.2 µM (inactive)	> 100 µM (inactive)		> 100 µM (inactive)	24.3 µM (inactive)	
